Reference: US8680113B2, “BMI-1 protein expression modulators” (PTC Therapeutics, Inc., priority 2008, dated 2014)

What follows are compounds tested on Bmi-1 (assay: Sandwich ELISA Assay (Bmi-1 ELISA in HT-1080 cells)).
Type: cell-based, human
Protocol: Cell Seeding and Compound Treatment (Day 1):
HT-1080 cells were seeded at 8000 cells/well (50 uL) in 96-well tissue culture plates. After the cells become adherent (3-4 hours), 2× diluted stocks of compounds in 50 uL DMEM containing 1% DMSO (final DMSO concentration was 0.5%) were added and the plates were incubated at 37° C. under 5% CO2 for 40-48 hours
ELISA Plate First Antibody Preparation (Day 2):
The First Antibody (Millipore Mouse, monoclonal to mouse Bmi-1, clone F6, catalog #05-637) diluted to 2 ug/mL in PBS was added (100 uL) to each well of a Nunc MaxiSorp 96-well ELISA plate. The plate was covered with a plate seal and allowed to stand overnight.
Cell Lysate Preparation (Day 3):
Fresh 1× Lysis buffer was prepared on the day of the assay as follows: 1 mM EDTA, 150 mM NaCl, 0.5% Triton-X 100, 10 mM NaF, 20 mM B-Glycerophosphate, 1 mM DTT (in PBS, pH 7.2-7.4) and 1×HALT protease inhibitor cocktail (Pierce #78410).
1× Lysis Buffer (40 uL) was added to each well and the plate was shaken for 5-10 minutes on an orbital shaker to allow cell lysis, then Diluent (1% BSA in PBS in 0.5% NP40) (100 uL) was added to each well.
The Bmi-1 standard curve was prepared in Diluent at the following concentrations of protein: 8000, 4000, 2000, 1000, 500, 250, 125, 0 pg/mL The Bmi-1 Recombinant Protein Standard (Novus Biologicals PCGF4 Recombinant Protein (P01), catalog #H00000648-P01) used in the standard curve was stored at −80° C., and on first thaw, diluted to 10 ug/uL in Blocking Buffer (1% BSA in PBS; BSA: Fisher Scientific Catalog #1600-100) before being aliquoted and refrozen at −80° C. Aliquots can be kept at 4° C. and reused after first thaw, but only for 1-2 weeks. The Bmi-1 Recombinant Protein Standard contains a GST-fusion tag and thus will show up on western blots around 70 Kda.
The prepared ELISA plate was washed 3× with Wash Buffer (0.05% Tween-20 in PBS). The final wash was removed from the plate and the plate was blotted dry on paper towels. Blocking Buffer (300 uL) (1% BSA in PBS) was added per well. The plate was covered with a plate seal and incubated at room temperature for 1 hour. The blocked plate was washed 3× with Wash Buffer, the final wash was removed and the plate was blotted dry on paper towels. The previously prepared samples and standards were added (at 100 uL/well) and the plate was covered with a plate seal and incubated at 4° C. overnight.
The prepared ELISA plate was removed from 4° C., incubated at room temperature for 30 minutes, then washed and blotted dry as previously described for Day 3. The Second Antibody (Cell Signaling Rabbit anti-Bmi-1, Cat#2830) diluted to 1:600 in Blocking Buffer was added (100 uL) to each well, except as needed for background control wells. The plate was covered with a plate seal and incubated for 1.5 hrs at room temperature.
The ELISA plate was washed and blotted dry as previously described. The Third Antibody (Cell Signaling HRP conjugated anti-rabbit IgG (CellSignaling, Cat#:7074) diluted to 1:300 in Blocking Buffer was added (100 uL) to each well, except as needed for background control wells. The plate was incubated for 1 hr at room temperature.
The plate was washed and blotted dry as previously described, then prepared TMB substrate (TMB substrate kit, Pierce catalog #34021) (prepared by mixing kit reagents 1:1) (100 uL) was added per well. The plate was incubated for 20-30 minutes at room temperature in the dark, then Stop Solution (2 M sulfuric acid in water) (50 uL) was added per well. The plates were read at OD450 (experimental) and OD570 (reference).

SMILES	IC50 [nM]
Cc1nc2ccc(Cl)cn2c1-c1csc(Nc2ccc(N(C)C)cc2)n1 [Cpd 58, N′-[4-(6-chloro-2-methylimidazo[1,2-a]pyridin-3-yl)-1,3-thiazol-2-yl]-N,N-dimethylbenzene-1,4-diamine]	< 500
COc1ccc(Nc2nc(-c3c(C)nc4ccc(Cl)cn34)cs2)cc1 [Cpd 59, 4-(6-chloro-2-methylimidazo[1,2-a]pyridin-3-yl)-N-(4-methoxyphenyl)-1,3-thiazol-2-amine]	< 500
Cc1nc2ccc(Cl)cn2c1-c1csc(Nc2ccc(Cl)cc2)n1 [Cpd 60, 4-(6-chloro-2-methylimidazo[1,2-a]pyridin-3-yl)-N-(4-chlorophenyl)-1,3-thiazol-2-amine]	< 500
Cc1nc2ccc(Cl)cn2c1-c1csc(Nc2ccc(Br)cc2)n1 [Cpd 61, N-(4-bromophenyl)-4-(6-chloro-2-methylimidazo[1,2-a]pyridin-3-yl)-1,3-thiazol-2-amine]	< 500
CC(=O)c1ccc(Nc2nc(-c3c(C)nc4ccc(Cl)cn34)cs2)cc1 [Cpd 62, 1-(4-{[4-(6-chloro-2-methylimidazo[1,2-a]pyridin-3-yl)-1,3-thiazol-2-yl]amino}phenyl)ethanone]	< 500
Cc1ccn2c(-c3csc(Nc4ccc5c(c4)OCO5)n3)c(C)nc2c1 [Cpd 63, N-(1,3-benzodioxol-5-yl)-4-(2,7-dimethylimidazo[1,2-a]pyridin-3-yl)-1,3-thiazol-2-amine]	< 500
Cc1ccn2c(-c3csc(Nc4ccc(N(C)C)cc4)n3)c(C)nc2c1 [Cpd 64, N′-[4-(2,7-dimethylimidazo[1,2-a]pyridin-3-yl)-1,3-thiazol-2-yl]-N,N-dimethylbenzene-1,4-diamine]	< 500
Cc1ccn2c(-c3csc(Nc4ccc(Cl)cc4)n3)c(C)nc2c1 [Cpd 65, N-(4-chlorophenyl)-4-(2,7-dimethylimidazo[1,2-a]pyridin-3-yl)-1,3-thiazol-2-amine]	< 500
COc1ccc(Nc2nc(-c3c(C)nc4cc(C)ccn34)cs2)cc1F [Cpd 66, 4-(2,7-dimethylimidazo[1,2-a]pyridin-3-yl)-N-(3-fluoro-4-methoxyphenyl)-1,3-thiazol-2-amine]	< 500
COc1ccc(Nc2nc(-c3c(C)nc4cc(C)ccn34)cs2)cc1Cl [Cpd 67, N-(3-chloro-4-methoxyphenyl)-4-(2,7-dimethylimidazo[1,2-a]pyridin-3-yl)-1,3-thiazol-2-amine]	< 500
Cc1ccn2c(-c3csc(Nc4ccc(Br)cc4)n3)c(C)nc2c1 [Cpd 68, N-(4-bromophenyl)-4-(2,7-dimethylimidazo[1,2-a]pyridin-3-yl)-1,3-thiazol-2-amine]	< 500
Cc1ccn2c(-c3csc(Nc4ccc(I)cc4)n3)c(C)nc2c1 [Cpd 69, 4-(2,7-dimethylimidazo[1,2-a]pyridin-3-yl)-N-(4-iodophenyl)-1,3-thiazol-2-amine]	< 500
Cc1ccc2nc(C)c(-c3csc(Nc4ccc(N(C)C)cc4)n3)n2c1 [Cpd 70, N′-[4-(2,6-dimethylimidazo[1,2-a]pyridin-3-yl)-1,3-thiazol-2-yl]-N,N-dimethylbenzene-1,4-diamine]	< 500
COc1ccc(Nc2nc(-c3c(C)nc4ccc(C)cn34)cs2)cc1 [Cpd 71, 4-(2,6-dimethylimidazo[1,2-a]pyridin-3-yl)-N-(4-methoxyphenyl)-1,3-thiazol-2-amine]	< 500
Cc1ccc2nc(C)c(-c3csc(Nc4ccc5c(c4)OCO5)n3)n2c1 [Cpd 72, N-(1,3-benzodioxol-5-yl)-4-(2,6-dimethylimidazo[1,2-a]pyridin-3-yl)-1,3-thiazol-2-amine]	< 500
COc1ccc(Nc2nc(-c3c(C)nc4ccc(C)cn34)cs2)cc1Cl [Cpd 73, N-(3-chloro-4-methoxyphenyl)-4-(2,6-dimethylimidazo[1,2-a]pyridin-3-yl)-1,3-thiazol-2-amine]	< 500

Next, values leading:

IC50 [nM]	SMILES
< 500	COCCOc1ccc(Nc2nc(-c3c(C)nc4ccc(C)cn34)cs2)cc1 [Cpd 74, 4-(2,6-dimethylimidazo[1,2-a]pyridin-3-yl)-N-[4-(2-methoxyethoxy)phenyl]-1,3-thiazol-2-amine]
< 500	CCN(CC)c1ccc(Nc2nc(-c3c(C)nc4ccc(C)cn34)cs2)cc1 [Cpd 75, N′-[4-(2,6-dimethylimidazo[1,2-a]pyridin-3-yl)-1,3-thiazol-2-yl]-N,N-diethylbenzene-1,4-diamine]
< 500	Cc1ccc2nc(C)c(-c3csc(Nc4ccc(I)cc4)n3)n2c1 [Cpd 76, 4-(2,6-dimethylimidazo[1,2-a]pyridin-3-yl)-N-(4-iodophenyl)-1,3-thiazol-2-amine]
< 500	Cc1ccc2nc(C)c(-c3csc(Nc4ccc(Br)cc4)n3)n2c1 [Cpd 77, N-(4-bromophenyl)-4-(2,6-dimethylimidazo[1,2-a]pyridin-3-yl)-1,3-thiazol-2-amine]
< 500	Cc1ccc2nc(C)c(-c3csc(Nc4ccc(Cl)cc4)n3)n2c1 [Cpd 78, N-(4-chlorophenyl)-4-(2,6-dimethylimidazo[1,2-a]pyridin-3-yl)-1,3-thiazol-2-amine]
< 500	Ic1ccc(Nc2nc(-c3cnc4ccccn34)cs2)cc1 [Cpd 79, 4-(imidazo[1,2-a]pyridin-3-yl)-N-(4-iodophenyl)-1,3-thiazol-2-amine]
< 500	Cc1nc2ncccn2c1-c1csc(N(C)c2ccc(Br)cc2)n1 [Cpd 80, N-(4-bromophenyl)-N-methyl-4-(2-methylimidazo[1,2-a]pyrimidin-3-yl)-1,3-thiazol-2-amine]
< 500	Cc1nc2ccc(Br)cn2c1-c1csc(Nc2ccc(N(C)C)cc2)n1 [Cpd 81, N′-[4-(6-bromo-2-methylimidazo[1,2-a]pyridin-3-yl)-1,3-thiazol-2-yl]-N,N-dimethylbenzene-1,4-diamine]
< 500	Cc1nc2ccc(Br)cn2c1-c1csc(Nc2ccc3c(c2)OCO3)n1 [Cpd 82, N-(1,3-benzodioxol-5-yl)-4-(6-bromo-2-methylimidazo[1,2-a]pyridin-3-yl)-1,3-thiazol-2-amine]
500 to 1000	Ic1ccc(Nc2nc(-c3cnc4ncccn34)cs2)cc1 [Cpd 83, 4-(imidazo[1,2-a]pyrimidin-3-yl)-N-(4-iodophenyl)-1,3-thiazol-2-amine]
< 500	COc1ccc(Nc2nc(-c3c(C)nc4ncccn34)cs2)cc1OC [Cpd 84, N-(3,4-dimethoxyphenyl)-4-(2-methylimidazo[1,2-a]pyrimidin-3-yl)-1,3-thiazol-2-amine]
< 500	Cc1ccc(Nc2nc(-c3c(C)nc4ncccn34)cs2)cc1 [Cpd 85, 4-(2-methylimidazo[1,2-a]pyrimidin-3-yl)-N-(4-methylphenyl)-1,3-thiazol-2-amine]
< 500	CCc1ccc(Nc2nc(-c3c(C)nc4ncccn34)cs2)cc1 [Cpd 86, N-(4-ethylphenyl)-4-(2-methylimidazo[1,2-a]pyrimidin-3-yl)-1,3-thiazol-2-amine]
< 500	Cc1nc2ncccn2c1-c1csc(Nc2ccc(C(C)C)cc2)n1 [Cpd 87, 4-(2-methylimidazo[1,2-a]pyrimidin-3-yl)-N-[4-(propan-2-yl)phenyl]-1,3-thiazol-2-amine]
< 500	CCOc1ccc(Nc2nc(-c3c(C)nc4ccc(Cl)cn34)cs2)cc1 [Cpd 88, 4-(6-chloro-2-methylimidazo[1,2-a]pyridin-3-yl)-N-(4-ethoxyphenyl)-1,3-thiazol-2-amine]
< 500	Cc1ccc(Nc2nc(-c3c(C)nc4ccc(Cl)cn34)cs2)cc1 [Cpd 89, 4-(6-chloro-2-methylimidazo[1,2-a]pyridin-3-yl)-N-(4-methylphenyl)-1,3-thiazol-2-amine]
< 500	CCc1ccc(Nc2nc(-c3c(C)nc4ccc(Cl)cn34)cs2)cc1 [Cpd 90, 4-(6-chloro-2-methylimidazo[1,2-a]pyridin-3-yl)-N-(4-ethylphenyl)-1,3-thiazol-2-amine]
